Test results from patent publication US3932384A, “Dibenzazecines” (Shionogi & Co., Ltd., priority 1972, dated 1976).

Legend:
DS-mice [1] = assay: Analgesic activity (Writhing method), phenylquinone-induced writhing in mice; type: in vivo; conditions: Mus musculus, ip, 0.25 h, phenylquinone i.p. 0.2 mg/10 g, 15 minutes, up-and-down method, read-out: Analgesic action, Writhing (ED50)
Description: 1. Analgesic activity (Writhing method);
DS-mice (15 to 17 g body weight, male and female) are treated with an intraperitoneal injection of 0.2 mg/10 g of 0.02 % phenylquinone solution as a writhing inducer and kept in an individual observation cage for 15 minutes after the administration of phenylquinone. […] The ED50 is calculated by the up-and-down method of Brownlee et al. [Fed.

DS-mice [2] = assay: Analgesic activity (Haffner method), tail-root pinch in mice; type: in vivo; conditions: Mus musculus, tail-root pinch with forceps, no withdrawal response within 3 seconds, Bliss' method, read-out: Analgesic action, Haffner (ED50)
Description: 2. Analgesic activity (Haffner method);
The tail-roots of DS-mice (15 to 17 g body weight, male and female) are pinched with a pair of forceps. Pain responses, such as biting, head turning and vocalization are observed. All of the control animals respond to the noxious stimulus with in a period of one second. […] The ED50 is calculated by the Bliss' method [Ann. Appl. Biol., 22, 134; 307 (1935); Quat. J. Pharmacol., 11, 192 (1938)].

[3] = Acute toxicity (mortality, LD50) in mice; conditions: mouse, in vivo; DS-mice; mortality during 72 hours after administration; Bliss' method
Description: Ten DS-mice (15 to 17 g body weight, male and female) in every group are used in the test at each dose level. Each assay compound is tested in 4 to 5 doses. The mortality is counted during a period of 72 hours after the administration of the test compound. The LD50 is calculated by the Bliss' method.

SMILES | ED50 (DS-mice [1]) | ED50 (DS-mice [2]) | LD50 at 72 h [3]
Cc1c(N(C)C)c(=O)n(-c2ccccc2)n1C [Aminopyrine, reference compound] | 44 mg/kg | 138 mg/kg | 335 mg/kg
CN1CCc2ccc(O)cc2CCc2ccc(O)c(O)c2C1 [Compound 1] | 26 mg/kg |  | 50 to 100 mg/kg
COc1ccc2c(c1OC)CN(C)CCc1ccc(O)cc1CC2 [Compound 2, 3,4-Dimethoxy-11-hydroxy-6-methyl-5,6,7,8.13,14-hexahydrodibenz[c,g]azecine] | 23.2 mg/kg | 58 mg/kg | 54.9 mg/kg
COc1ccc2c(c1OC)CN(C)CCc1cc(O)ccc1CC2 [Compound 3, 3,4-Dimethoxy-10-hydroxy-6-methyl-5,6,7,8,13,14-hexahydrodibenz[c,g]azecine] | 22.3 mg/kg | 37.9 mg/kg | 231 mg/kg
COc1ccc2c(c1OC)CN(C)CCc1cc(CO)c(O)cc1CC2 [Compound 4, 3,4-dimethoxy-11-hydroxy-10-hydroxymethyl-6-methyl-5,6,7,8,13,14-hexahydrodibenz[c,g]azecin] | 45 mg/kg |  | > 500 mg/kg
CN1CCc2ccc(O)cc2CCc2cccc(O)c2C1.[O-][Cl+3]([O-])([O-])O [Compound 5, 4,11-Dihydroxy-6-methyl-5,6,7,8,13,14-hexahydrodibenz[c,g]azecine perchlorate] | 50 mg/kg |  | 300 mg/kg
Br.CN1CCc2cc(O)ccc2CCc2ccc(O)c(O)c2C1 [Compound 6, 6-Methyl-3,4,10-trihydroxy-5,6,7,8,13,14-hexahydrodibenz[c,g]azecine hydrobromide] | 75 mg/kg |  | 300 mg/kg
COc1ccc2c(c1OC)CNCCc1cc(O)ccc1CC2 [Compound 7, 3,4-dimethoxy-10-hydroxy-5,6,7,8,13,14-hexahydrodibenz[c,g]azecine] | 26.5 mg/kg | 250 mg/kg | 500 mg/kg
